According to ChEMBL document CHEMBL3045007, “Aryloxyacetic esters structurally related to -Asarone as potential antifungal agents” (2010):
≈ marks a conversion by molar mass, not a printed value. Calls of active or inactive are those of the source. The rule behind the calls is not given here.

Assays:
[1] = tested on: Cryptococcus gattii species complex; experiment: Antifungal activity against Cryptococcus gattii after 48 hr by broth microdilution method; assay type: functional, Cryptococcus bacillisporus; settings: for MIC50: Cryptococcus gattii species complex, 48 h
[2] = tested on: Cryptococcus deneoformans; experiment: Antifungal activity against Cryptococcus neoformans var. neoformans after 48 hr by broth microdilution method; assay type: functional; settings: for MIC50: Cryptococcus deneoformans, 48 h

| SMILES | MIC50 [1] | MFC>99 [2] | MIC50 [2] | MFC>99 [1] | Activity ([1]; Cryptococcus bacillisporus) | Activity [2] |
| --- | --- | --- | --- | --- | --- | --- |
| CCCCCOC(=O)COc1ccccc1OC | 64 µg/mL (≈ 254 µM) | >64 µg/mL | 16 µg/mL (≈ 63.4 µM) | – | – | – |
| CCCCCOC(=O)COc1ccccc1 [N-AMYL PHENOXYACETATE] | 2 µg/mL (≈ 9 µM) | 64 µg/mL (≈ 288 µM) | 16 µg/mL (≈ 72 µM) | 2 µg/mL (≈ 9 µM) | – | – |
| CCC(C)n1ncn(-c2ccc(N3CCN(c4ccc(OCC5COC(Cn6cncn6)(c6ccc(Cl)cc6Cl)O5)cc4)CC3)cc2)c1=O (stereo not given) [ITRACONAZOLE] | 0.03 µg/mL (≈ 0.0425 µM) | – | 0.03 µg/mL (≈ 0.0425 µM) | – | – | – |
| COc1cc(C)ccc1OCC(=O)OC(C)C | 0.25 µg/mL (≈ 1.05 µM) | – | 64 µg/mL (≈ 269 µM) | 0.25 µg/mL (≈ 1.05 µM) | – | – |
| C[C@@H]1[C@H](O)[C@@H](C)/C=C/C=C/C=C/C=C/C=C/C=C/C=C/[C@H](O[C@@H]2O[C@H](C)[C@@H](O)[C@H](N)[C@@H]2O)C[C@@H]2O[C@](O)(C[C@@H](O)C[C@@H](O)[C@H](O)CC[C@@H](O)C[C@@H](O)CC(=O)O[C@H]1C)C[C@H](O)[C@H]2C(=O)O [AMPHOTERICIN B] | 0.12 µg/mL (≈ 0.13 µM) | – | 0.12 µg/mL (≈ 0.13 µM) | – | – | – |
| Cc1ccc(OCC(=O)OC(C)C)cc1 [ISOPROPYL 4-METHYLPHENOXYACETATE] | 128 µg/mL (≈ 615 µM) | >64 µg/mL | 8 µg/mL (≈ 38.4 µM) | – | – | – |
| CC(=O)N1CCN(c2ccc(OCC3COC(Cn4ccnc4)(c4ccc(Cl)cc4Cl)O3)cc2)CC1 (stereo not given) [KETOCONAZOLE] | 0.06 µg/mL (≈ 0.113 µM) | – | 0.12 µg/mL (≈ 0.226 µM) | – | – | – |
| COC(=O)COc1ccccc1OC | 128 µg/mL (≈ 652 µM) | >64 µg/mL | 0.5 µg/mL (≈ 2.55 µM) | – | – | – |
| OC(Cn1cncn1)(Cn1cncn1)c1ccc(F)cc1F [FLUCONAZOLE] | 4 µg/mL (≈ 13.1 µM) | – | 4 µg/mL (≈ 13.1 µM) | – | – | – |
| CC[C@H](C)C[C@H](C)CCCCCCCCC(=O)N[C@H]1C[C@@H](O)[C@@H](NCCN)NC(=O)[C@@H]2[C@@H](O)CCN2C(=O)[C@H]([C@H](O)CCN)NC(=O)[C@H]([C@H](O)[C@@H](O)c2ccc(O)cc2)NC(=O)[C@@H]2C[C@@H](O)CN2C(=O)[C@H]([C@@H](C)O)NC1=O [CASPOFUNGIN] | 16 µg/mL (≈ 14.6 µM) | – | 8 µg/mL (≈ 7.32 µM) | – | – | – |
| CCCCCOC(=O)COc1ccc(C)cc1OC | 0.5 µg/mL (≈ 1.88 µM) | – | 32 µg/mL (≈ 120 µM) | 0.5 µg/mL (≈ 1.88 µM) | – | – |
| COc1cc(C)ccc1OCC(=O)Oc1ccc(Cl)cc1 | 0.5 µg/mL (≈ 1.63 µM) | 0.25 µg/mL (≈ 0.815 µM) | 0.25 µg/mL (≈ 0.815 µM) | 0.5 µg/mL (≈ 1.63 µM) | – | – |
| CCCOC(=O)COc1ccc(C)cc1OC | 0.25 µg/mL (≈ 1.05 µM) | – | 2 µg/mL (≈ 8.39 µM) | – | Active | Active |
| CCCOC(=O)COc1cccc(OC)c1 | 64 µg/mL (≈ 285 µM) | >64 µg/mL | 0.5 µg/mL (≈ 2.23 µM) | – | – | – |
